Laboratory results reported in patent US7771713B2, “Chemical composition that attract arthropods” (priority 1999, dated 2010).

Columns and labels:
[1] = system: Anopheles albimanus; experiment: Olfactometer attraction test of compounds and compositions; assay type: in vivo;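 note: olfactometer with a treatment port and a matching control port using identical delivery device and conditions, both opened together, three tests per battery, each run in its own cage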
[2] = system: Aedes aegypti; experiment: Olfactometer attraction test, treatment port vs control port, approximately 75 female mosquitoes; assay type: in vivo; conditions: for Δ [(Resp with LA) − Resp] (%): difference between response with L-lactic acid and response alone; for Response with Ace (%): base compound together with acetone; for Δ [(Resp with Ace) − Resp] (%): difference between response with acetone and response alone
Procedure: The tests were conducted in an olfactometer (55 ft^3/min airflow, 80° F., 60% R.H.) as described by Posey, J. Med. Entomol., 35, 330-334 (1998); and LA is lactic acid. Mosquitoes were allowed to settle at least one hour prior to testing. The olfactometer was cleaned after each battery of tests. Each battery consisted of three tests, conducted at 08:30, 11:00 and 13:00 hours local time. Each of the three tests was conducted in a separate cage. The control consisted of identical sample delivery devices and conditions compared to that of the treatment side. Both the treatment and control ports were opened and closed simultaneously when inserting a new treatment/control.

[3] = compound 500 μL together with L-lactic acid
[4] = compound alone, high dose of 500 μL
[5] = base compound alone (mode of action similar to lactic acid)
[6] = single compound, dose 500 (μL), 60 mL glass petri dish, Aedes aegypti attraction
[7] = no Base, Activator1 dose 500, 60 mL glass petri dish

O=C(O)CC(O)C(=O)O (racemic) [DL-Malic Acid]
% caught ([1]; single substance, Crys dish (crystalline solid)): 0.0%

CC(Cl)(Cl)Cl [1,1,1-Trichloroethane]
% caught ([1]; single treatment, 500 μL): 61.0%

ClCC(Cl)Cl [1,1,2-Trichloroethane]
% caught ([1]; single treatment, 500 μL): 64.4%

O=C(CCl)C(Cl)Cl [1,1,3-Trichloroacetone]
% caught ([1]; single treatment, 500 μL): 5.6%

CN1CCNCC1 [1-Methylpiperazine]
% caught ([1]; single treatment, 500 μL): 1.3%

Cn1cccc1 [1-Methylpyrrole]
% caught ([1]; single treatment, 500 μL): 10.7%

CCCCCCCCCO [1-Nonanol]
% caught ([1]; single treatment, 500 μL): 4.1%

C=CC(O)CCCCC (stereo not shown) [1-Octen-3-ol]
% caught ([1]; single treatment, 500 μL): 24.0%

CCCS [1-Propanethiol]
% caught ([1]; single treatment, 500 μL): 24.0%

C=CCCCCCCCCCCCC [1-Tetradecene]
% caught ([1]; single treatment, 500 μL): 1.4%

C=CC(O)CCCC (stereo not shown) [1-hepten-3-ol]
Response with L-LA (%) [2, 3]: 15%
Response (%) [2, 4]: 10%
attraction of various mixtures and items ([2]; default LA 200 μg, other chemicals 500 μL unless specified, containers as in the label): 7%
Δ [(Resp with LA) − Resp] (%) [2]: 5%

C=CCCCCC [1-heptene]
Response (%) [2, 5]: 4%
Response with Ace (%) [2]: 34%
Response with L-LA (%) [2, 3]: 19%
Response (%) [2, 4]: 5%
Δ [(Resp with LA) − Resp] (%) [2]: 14%
Δ [(Resp with Ace) − Resp] (%) [2]: 30%
Response Avg % [2, 6]: 5.0%

C=CCCCCCCC [1-nonene]
Response (%) [2, 5]: 6%
Response with Ace (%) [2]: 54%
Response with L-LA (%) [2, 3]: 8%
Response (%) [2, 4]: 6%
Δ [(Resp with LA) − Resp] (%) [2]: 2%
Δ [(Resp with Ace) − Resp] (%) [2]: 48%

C=CCCCCCC [1-octene]
Response (%) [2, 5]: 38%
Response with Ace (%) [2]: 63%
Response with L-LA (%) [2, 3]: 42%
Response (%) [2, 4]: 38%
Δ [(Resp with LA) − Resp] (%) [2]: 4%
Δ [(Resp with Ace) − Resp] (%) [2]: 25%

C=CC(=O)CC [1-penten-3-one]
Response with L-LA (%) [2, 3]: 23%
Response (%) [2, 4]: 19%
Δ [(Resp with LA) − Resp] (%) [2]: 4%
% caught ([1]; single treatment, 500 μL): 29.3%

CCCC(=O)C(C)=O [2,3-Hexanedione]
% caught ([1]; single treatment, 500 μL): 2.7%

CC(=O)C(C)=O [2,3-butanedione]
Response with L-LA (%) [2, 3]: 29%
Response (%) [2, 4]: 37%
Δ [(Resp with LA) − Resp] (%) [2]: −8%
% caught ([1]; single treatment, 500 μL): 1.4%

CC(C)CC(=O)CC(C)C [2,6-Dimethyl-4-Heptanone]
% caught ([1]; single treatment, 500 μL): 18.7%

Nc1ccccn1 [2-Aminopyridine]
% caught ([1]; single treatment, 500 μL): 0.0%

CCCCCCCCCCC(C)=O [2-Dodecanone]
% caught ([1]; single treatment, 500 μL): 1.4%

CCCCC(=O)C(C)C [2-Methyl-3-Heptanone]
% caught ([1]; single treatment, 500 μL): 34.7%

CCCCCC(=O)C(C)C [2-Methyl-3-Octanone]
% caught ([1]; single treatment, 500 μL): 30.1%

CC(C)S [2-Thiopropane]
% caught ([1]; single treatment, 500 μL): 20.5%

CCCCCCCCCCCC(C)=O [2-Tridecanone]
% caught ([1]; single treatment, 500 μL): 1.3%

CCCCCCCCCC(C)=O [2-Undecanone]
% caught ([1]; single treatment, 500 μL): 4.2%

CCCCCCCC(=O)CC [3-Decanone]
% caught ([1]; single treatment, 500 μL): 9.3%

CCCCCC(=O)CC [3-Octanone]
% caught ([1]; single treatment, 500 μL): 25.0%

CC=CC(C)=O [3-penten-2-one]
Response with L-LA (%) [2, 3]: 49%
Response (%) [2, 4]: 11%
Δ [(Resp with LA) − Resp] (%) [2]: 38%

CCCCCCC(=O)CCC [4-Decanone]
% caught ([1]; single treatment, 500 μL): 7.8%

CC=CC(=O)CC [4-Hexen-3-one]
% caught ([1]; single treatment, 500 μL): 79.2%

CC(=O)CCC(C)C [5-Methyl-2-Hexanone]
% caught ([1]; single treatment, 500 μL): 11.7%

CC(=O)C=CC=C(C)C [6-Methyl-3,5-Heptadien-2-one]
% caught ([1]; single treatment, 500 μL): 18.7%

CCCCCC(=O)CCCCC [6-Undecanone]
% caught ([1]; single treatment, 500 μL): 3.9%

CC(=O)O [Acetic Acid]
% caught ([1]; single treatment, 500 μL): 2.7%

CC(=O)CCC(C)=O [Acetonylacetone]
% caught ([1]; single treatment, 500 μL): 0.0%

C=CCSSCC=C [Allyl Disulfide]
% caught ([1]; single treatment, 500 μL): 0.0%

C[C@@H](O)C(=O)O [D-lactic acid]
Response (%) [2, 5]: 8%
Response with Ace (%) [2]: 82%
Δ [(Resp with Ace) − Resp] (%) [2]: 74%

C[S+](C)[O-] [Dimethylsulfoxide]
Response Avg % [2, 6]: 3.0%

CCS [Ethanethiol]
% caught ([1]; single treatment, 500 μL): 40.0%

CCOC(C)=O [Ethyl Acetate]
% caught ([1]; single treatment, 500 μL): 28.4%

C=O [Formaldehyde]
Response Avg % [2, 6]: 1.0%

O=CO [Formic Acid]
% caught ([1]; in vivo): 0.0%

OCc1ccco1 [Furfuryl Alcohol]
% caught ([1]; single treatment, 500 μL): 46.7%

O=CC(=O)O [Glyoxylic Acid]
% caught ([1]; single treatment, 500 μL): 1.3%

c1ccc2[nH]ccc2c1 [Indole]
% caught ([1]; single treatment, 500 μL): 1.3%

CC(C)C=O [Isobutanal]
Response Avg % [2, 7]: 13.0%

CC1=CC(=O)CC(C)(C)C1 [Isophorone]
% caught ([1]; single treatment, 500 μL): 13.3%

CCCCCCCCCCCC(=O)O [Laurie Acid]
% caught ([1]; single treatment, 500 μL): 1.3%

CO [MeOH]
Response Avg % [2, 7]: 10.0%

CC(=O)C=C(C)C [Mesityl Oxide]
% caught ([1]; single treatment, 500 μL): 28.4%

CCCC(=O)OC [Methylbutyrate]
% caught ([1]; single treatment, 500 μL): 55.8%

CCCCC [Pentane]
% caught ([1]; single treatment, 500 μL): 2.7%

CC(C)=CC(=O)C=C(C)C [Phorone]
% caught ([1]; single treatment, 500 μL): 50.6%

c1cnccn1 [Pyrazine]
% caught ([1]; single treatment, 500 μL): 29.3%

ClC(Cl)=C(Cl)Cl [Tetrachloroethylene]
% caught ([1]; single treatment, 500 μL): 17.3%

c1ccsc1 [Thiophene]
% caught ([1]; single treatment, 500 μL): 68.0%

N#CC(Cl)(Cl)Cl [Trichloroacetonitrile]
% caught ([1]; single treatment, 500 μL): 65.3%

ClC=C(Cl)Cl [Trichloroethylene]
% caught ([1]; single treatment, 500 μL): 57.9%

CC=O [acetaldehyde]
Response with L-LA (%) [2, 3]: 29%
Response (%) [2, 4]: 8%
Δ [(Resp with LA) − Resp] (%) [2]: 21%

CC#N [acetonitrile]
Response with L-LA (%) [2, 3]: 81%
Response (%) [2, 4]: 27%
Δ [(Resp with LA) − Resp] (%) [2]: 54%

BrC(Br)Br [bromoform]
Response with L-LA (%) [2, 3]: 64%
Response (%) [2, 4]: 27%
Δ [(Resp with LA) − Resp] (%) [2]: 37%

O=C=O [carbon dioxide, reference compound]
Response Avg % ([2]; CO2 alone, dose 0.5, Aedes aegypti attraction): 4.0%
Response with L-LA (%) ([2]; carbon dioxide 5 ml/min with L-lactic acid): 68%

CCOCC [diethyl ether]
Response with L-LA (%) [2, 3]: 56%
Response (%) [2, 4]: 25%
Δ [(Resp with LA) − Resp] (%) [2]: 31%

C[S+](C)[O-] [dimethyl sulfoxide]
Response with L-LA (%) [2, 3]: 30%
Response (%) [2, 4]: 3%
Δ [(Resp with LA) − Resp] (%) [2]: 27%

CCO [ethanol]
Response with L-LA (%) [2, 3]: 57%
Response (%) [2, 4]: 9%
Δ [(Resp with LA) − Resp] (%) [2]: 48%

C=O [formaldehyde (37%), formaldehyde]
Response with L-LA (%) [2, 3]: 5%
Response (%) [2, 4]: 1%
Δ [(Resp with LA) − Resp] (%) [2]: 4%

O=C(O)CO [glycolic acid]
Response (%) [2, 5]: 17%
Δ [(Resp with Ace) − Resp] (%) [2]: 64%

CC(C)C=O [isobutyraldehyde]
Response with L-LA (%) [2, 3]: 32%
Response (%) [2, 4]: 13%
Δ [(Resp with LA) − Resp] (%) [2]: 19%

CO [methanol]
Response with L-LA (%) [2, 3]: 66%
Response (%) [2, 4]: 10%
Δ [(Resp with LA) − Resp] (%) [2]: 56%

CCCCCCCCC=O [nonanal]
Δ [(Resp with LA) − Resp] (%) [2]: 10%

CCC(=O)O [propanoic acid]
Response with L-LA (%) [2, 3]: 1%
Response (%) [2, 4]: 3%
Δ [(Resp with LA) − Resp] (%) [2]: −2%
Response Avg % [2, 6]: 3.0%

CCCCC/C=C/C(C)=O [t-3-Nonen-2-one]
% caught ([1]; single treatment, 500 μL): 10.7%

O=C(O)C(O)C(O)C(=O)O (stereo not shown) [tartaric acid]
Response (%) [2, 5]: 9%
Response with Ace (%) [2]: 67%
Δ [(Resp with Ace) − Resp] (%) [2]: 58%

Cc1ccccc1 [toluene]
Response with L-LA (%) [2, 3]: 59%
Response (%) [2, 4]: 7%
Δ [(Resp with LA) − Resp] (%) [2]: 52%
